Reference: publication PMC9062515, “Identification of the Biosynthetic Pathway of Glycine Betaine That Is Responsible for Salinity Tolerance in Halophilic Thioalkalivibrio versutus D301” (Frontiers in Microbiology, 2022)

Assays:
TvSDMT = target: T1, TvSDMT (Thioalkalivibrio versutus, UniProt A0A0G3G397); assay: methyltransferase assay, HPLC of product; format: biochemical; conditions: 10 mM SAM, MgCl2, pH 7.5, 37 °C
T1 construct: gene TVD_00880; His-tagged, pET-28a(+), E. coli BL21(DE3), Ni Sepharose; calculated 32 kDa
T1 sequence (A0A0G3G397 1-282): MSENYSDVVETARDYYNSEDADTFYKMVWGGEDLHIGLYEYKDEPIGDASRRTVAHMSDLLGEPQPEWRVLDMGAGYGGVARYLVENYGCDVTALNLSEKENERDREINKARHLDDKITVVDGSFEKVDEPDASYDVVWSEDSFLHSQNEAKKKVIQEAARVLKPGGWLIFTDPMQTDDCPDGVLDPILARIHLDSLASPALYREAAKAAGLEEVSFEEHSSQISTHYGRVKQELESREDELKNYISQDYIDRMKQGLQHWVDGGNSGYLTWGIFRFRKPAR

TvGMT = target: T2, TvGMT (Thioalkalivibrio versutus, UniProt A0A0G3G560); assay: methyltransferase assay, HPLC of product; format: biochemical; conditions: 250 mM glycine, 10 mM SAM, MgCl2, pH 7.5, 37 °C
T2 construct: gene TVD_00875; His-tagged, pET-28a(+), E. coli BL21(DE3), Ni Sepharose; calculated 32 kDa
T2 sequence (A0A0G3G560 1-272): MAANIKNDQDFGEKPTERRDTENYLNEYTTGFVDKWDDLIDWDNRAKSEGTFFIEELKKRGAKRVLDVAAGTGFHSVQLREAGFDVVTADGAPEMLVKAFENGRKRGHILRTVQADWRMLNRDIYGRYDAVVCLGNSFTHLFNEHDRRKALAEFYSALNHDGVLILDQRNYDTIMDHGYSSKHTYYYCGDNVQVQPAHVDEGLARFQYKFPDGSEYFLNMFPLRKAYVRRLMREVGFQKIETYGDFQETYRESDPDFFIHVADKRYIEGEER

CN(C)CC(=O)O [dimethylglycine]
methyltransferase assay, HPLC of product (TvSDMT; 50 mM dimethylglycine): exhibited activities on both sarcosine and dimethylglycine, showing a higher specific activity toward dimethylglycine

NCC(=O)O [glycine]
methyltransferase assay, HPLC of product (TvGMT): The purified TVD_RS00875 converted glycine to sarcosine with a relatively high specific activity

CNCC(=O)O [sarcosine]
methyltransferase assay, HPLC of product (TvSDMT; 60 mM sarcosine): TvSDMT, exhibited activities on both sarcosine and dimethylglycine
